In this assay the target is T1, full length SGK1 (Homo sapiens, UniProt O00141).
T1 construct: 125 μM full length SGK1 (Life Technologies Part #PR7358A); purchased Life Technologies PR7358A
T1 sequence (O00141 1-431): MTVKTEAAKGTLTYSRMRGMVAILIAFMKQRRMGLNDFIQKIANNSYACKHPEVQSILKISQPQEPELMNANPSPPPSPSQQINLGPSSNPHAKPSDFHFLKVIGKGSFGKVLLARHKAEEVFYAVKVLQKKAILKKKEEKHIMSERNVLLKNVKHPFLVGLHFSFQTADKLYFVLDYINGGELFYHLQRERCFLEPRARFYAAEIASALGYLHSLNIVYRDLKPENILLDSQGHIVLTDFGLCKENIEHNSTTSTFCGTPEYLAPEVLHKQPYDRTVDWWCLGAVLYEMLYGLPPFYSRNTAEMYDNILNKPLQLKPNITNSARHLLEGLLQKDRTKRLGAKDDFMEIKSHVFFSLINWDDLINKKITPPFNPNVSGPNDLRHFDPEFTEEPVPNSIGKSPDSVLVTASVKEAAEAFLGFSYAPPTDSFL
Description: SGK1 inhibition Assay A (Caliper LabChip electrophoretic separation of fluorescent peptide substrate and phosphorylated product). The settings on record: Assay A; 20 μM ATP, 40 min incubation; read-out: SGK1 IC50. The class given is biochemical.

pIC50: −log10 of the molar value. Where a name gives a salt, the structure may show the parent alone.

For `Cc1cc(-c2cc(N3CCC[C@@H](NC(=O)c4ccc(Cl)s4)C3)c3c(N)ncnn23)ccn1` [Example 132, N-[(3R)-1-[4-amino-7-(2-methylpyridin-4-yl)pyrrolo[2,1-f][1,2,4]triazin-5-yl]piperidin-3-yl)-5-chlorothiophene-2-carboxamide], the pIC50 was 8.40.

As to `Cc1cc(-c2cc(N3CCC[C@@H](NC(=O)c4ccc(C)s4)C3)c3c(N)ncnn23)ccn1` [Example 133, N-[(3R)-1-[4-amino-7-(2-methylpyridin-4-yl)pyrrolo[2,1-f][1,2,4]triazin-5-yl]piperidin-3-yl]-5-methylthiophene-2-carboxamide], the pIC50 was 8.40.

As for `CS(=O)(=O)N1CC=C(c2cc(N3CCC[C@@H](NC(=O)c4ccc(Cl)s4)C3)c3c(N)ncnn23)C1` [Example 134, (R)—N-(1-(4-amino-7-(1-(methylsulfonyl)-2,5-dihydro-1H-pyrrol-3-yl)pyrrolo[2,1-f][1,2,4]triazin-5-yl)piperidin-3-yl)-5-chlorothiophene-2-carboxamide], the pIC50 is 8.70.

With `CS(=O)(=O)N1CC=C(c2cc(N3CCC[C@@H](NC(=O)c4cccs4)C3)c3c(N)ncnn23)C1` [Example 135, (R)—N-(1-(4-amino-7-(1-(methylsulfonyl)-2,5-dihydro-1H-pyrrol-3-yl)pyrrolo[2,1-f][1,2,4]triazin-5-yl)piperidin-3-yl)thiophene-2-carboxamide, TFA], the pIC50 is 8.52.

Consider `Cc1ccc(C(=O)N[C@@H]2CCN(c3cc(-c4ccc(S(C)(=O)=O)cc4)n4ncnc(N)c34)C2)s1` [Example 136, (R)—N-(1-(4-amino-7-(4-(methylsulfonyl)phenyl)pyrrolo[2,1-f][1,2,4]triazin-5-yl)pyrrolidin-3-yl)-5-methylthiophene-2-carboxamide, TFA], for which the negative-log IC50 (pIC50) was 6.64.

`CS(=O)(=O)c1ccc(-c2cc(N3CC[C@@H](NC(=O)c4ccc(Cl)s4)C3)c3c(N)ncnn23)cc1` [Example 137, (R)—N-(1-(4-amino-7-(4-(methylsulfonyl)phenyl)pyrrolo[2,1-f][1,2,4]triazin-5-yl)pyrrolidin-3-yl)-5-chlorothiophene-2-carboxamide, TFA]: the pIC50 is 6.84.

In the case of `COC(=O)N1CC=C(c2cc(N3CCC[C@@H](NC(=O)c4ccc(Cl)s4)C3)c3c(N)ncnn23)C1` [Example 138, methyl (R)-3-(4-amino-5-(3-(5-chlorothiophene-2-carboxamido)piperidin-1-yl)pyrrolo[2,1-f][1,2,4]triazin-7-yl)-2,5-dihydro-1H-pyrrole-1-carboxylate, TFA], the pIC50 is 8.15.

Take `NC(=O)c1ccc(-c2cc(N3CCC[C@@H](NC(=O)c4ccc(Cl)s4)C3)c3c(N)ncnn23)cc1F` [Example 139, (R)—N-(1-(4-amino-7-(4-carbamoyl-3-fluorophenyl)pyrrolo[2,1-f][1,2,4]triazin-5-yl)piperidin-3-yl)-5-chlorothiophene-2-carboxamide, TFA]: the pIC50 is 8.52.

Turning to `COCCOc1cc(Cl)sc1C(=O)N[C@@H]1CCCN(c2cc(C3=CCN(S(C)(=O)=O)C3)n3ncnc(N)c23)C1` [Example 140, (R)—N-(1-(4-amino-7-(1-(methylsulfonyl)-2,5-dihydro-1H-pyrrol-3-yl)pyrrolo[2,1-f][1,2,4]triazin-5-yl)piperidin-3-yl)-5-chloro-3-(2-methoxyethoxy)thiophene-2-carboxamide], the pIC50 was 8.22.

On to `CN(C)CCOc1cc(Cl)sc1C(=O)N[C@@H]1CCCN(c2cc(C3=CCN(S(C)(=O)=O)C3)n3ncnc(N)c23)C1` [Example 141, (R)—N-(1-(4-amino-7-(1-(methylsulfonyl)-2,5-dihydro-1H-pyrrol-3-yl)pyrrolo[2,1-f][1,2,4]triazin-5-yl)piperidin-3-yl)-5-chloro-3-(2-(dimethylamino)ethoxy)thiophene-2-carboxamide, TFA], for which the pIC50 is 8.52.

As a reminder, the pIC50 is the negative decadic logarithm of the IC50, by convention in mol/L.

Source of the values: patent publication US20260250290A1 (BRISTOL-MYERS SQUIBB COMPANY, priority 2023, published 2026).
